Measured values: patent US20240417687A1, “THYMIC CELLS AND METHODS OF MAKING” (Thymmune Therapeutics, Inc., priority 2021, published 2024)

How the values were obtained:
Type in all cases: cell-based, human
iPSCs = test: Optimizing 3D differentiation of iPSCs to definitive endoderm (Experiments 21, 22, 23)
Protocol: In this experiment, the effect of adding PI-103 to Experiment 21/22 Medium B was tested. The effect of transitioning to 2D culture at the AFE stage was also tested. Differentiation of iPSCs into DE requires proper timing for introducing small molecules and growth factors. On Day 1-2, Experiment 21/22 Media A comprising DMEM-F12 and factors/small molecules namely Activin A (100 ng/mL), CHIR99021 2 μM, ITS (1:1000), KSR (0.05%), Pen strep (100×), PI-103 (25 nM) and NEAA (100×) was added. On day 3-5, Experiment 21/22 Media B comprising DMEM-F12 and factors/small molecules namely Activin A (100 ng/mL), LDN193189 (200 nM), PI-103 (25 nM), Insulin-Transferrin-Selenium (ITS-G) (1:1000), KSR (0.05%), Pen strep (100×) and NEAA (100×) was added. In Experiment 22, PI-103 (25 nM) was excluded. The effect of transitioning from 3D to 2D culture at VPE stage was tested. The impact of CHIR99021 addition to Experiment 23 Medium B was tested. Differentiation of iPSCs into DE requires proper timing for introducing small molecules and growth factors. On day 1-2, cells were cultured in Experiment 23 Media A comprising DMEM-F12 and small molecules/factors namely Activin A (100 ng/mL), CHIR99021 2 μM, ITS (1:1000), KSR (0.05%), Pen strep (100×), PI-103 (25 nM), and NEAA (100×). On day 3-4, Experiment 23 Media B containing DMEM-F12 and small molecules/factors namely Activin A (100 ng/mL), CHIRR9901 (2 μM), LDN193189 (200 nM), PI-103 (25 nM), Insulin-Transferrin-Selenium (ITS-G) (1:1000), KSR (0.05%), Pen strep (100×), and NEAA (100×). On day 5, Experiment 23 Media B containing DMEM-F12 and small molecules/factors namely Activin A (100 ng/mL), LDN193189 (200 nM), PI-103 (25 nM), Insulin-Transferrin-Selenium (ITS-G) (1:1000), KSR (0.05%), Pen strep (100×), NEAA (100×) was added. Experiment 21 and Experiment 23 described in Example 11 were designed to identify optimal conditions for 3D differentiation to DE. […] Sox17/FoxA2 double positive were higher in Experiment 23, whereas there were more Sox17/FoxA2 negative cells in Experiment 21 and Experiment 22.

TEP populations = test: Oct4 and Nanog expression in TEP populations treated with PluriSIn-1
Protocol: On days 19-22, cells were cultured in TEC media. On day19, equal amount of freshly made TEC media (500 μl) was replaced gently without disturbing the aggregates. TEC media was prepared to include Basal Media: DMEM-F12, FGF10 (50 ng/ml), IL-22 (20 ng/ml), FGF7/KGF (50 ng/ml), RANKL/TRANCE (50 ng/ml), BMP4 (50 ng/ml), FGF8b (50 ng/ml), CHIRR99 (2 μM), Ascorbic Acid (10 μM), Insulin-Transferrin-Selenium (ITS-G) (1:1000), KSR (0.0025%), Pen strep (1:200), B27 (without VIT A) (1:200), Glutamax (1:100), BME (1:100), N2(1:100), NEAA (1:400), Glutamax (100×), and BME (100×). On day 20, equal amount of freshly prepared TEC media (500 ul) along with Plurisin #1(20 μM) was added (Groups-Untreated and Treated). On day21, equal amount of freshly made TEC media (500 ul) was replaced gently without disturbing the aggregates. On day22, the cells were treated with Accutase and were frozen using Hypothermosol-FRS Media. The cells were split into the following groups for experimentation. Group 37FT1 (8.85M Treated and 9.5M untreated groups) was thawed in 3D and maintained in TEC media (Y27-10 uM on day1) for 6 days. On Day 6, cells were treated with 20 μM Plurisin #1 (24 hours) and were transplanted on day7 into 4 animals. Group 37FT2 (8.85M per plate) was thawed in 3D and maintained in TEC media (Y27-10 uM on day1) for 6 days. […]

TEPs = test: Extended culture of TEPs with TEP medium supplemented with growth factors (Experiments 29, 30); settings: TEP medium supplemented with FGF7, FGF10 and RANKL together, Experiment 29 and 30
Protocol: For this differentiation step, VPE cells were cultured in thymic cell media e.g. TEP media or TEC media. On days 13-18, media was replaced for Experiment 29 TEP media containing Basal Media: DMEM-F12, FGF10 (50 ng/ml), BMP4 (50 ng/ml), FGF8b (50 ng/ml), CHIRR99 (2 μM), Ascorbic Acid (10 μM), Insulin-Transferrin-Selenium (ITS-G) (1:1000), KSR (0.0025%), Pen strep (1:200), B27 (without VIT A) (1:200), Glutamax (1:100), BME (1:100), N2(1:100), and NEAA (1:400). On day 13, equal amount of freshly made TEP media (500 ul) was added gently without disturbing the aggregates. On day 14-18, 50% of supernatant was removed and freshly prepared TEP media (500 ul) was added per well. On days 19-22, media was replaced with TEC media containing Basal Media: DMEM-F12, FGF10 (50 ng/ml), FGF7/KGF (50 ng/ml), RANKL/TRANCE (50 ng/ml), BMP4 (50 ng/ml), FGF8b (50 ng/ml), CHIRR99 (2 μM), Ascorbic Acid (10 μM), Insulin-Transferrin-Selenium (ITS-G) (1:1000), KSR (0.0025%), Pen strep (1:200), B27 (without VIT A) (1:200), Glutamax (1:100), BME (1:100), N2(1:100), NEAA (1:400), Glutamax (100×), and BME (100×). On days 20-22, 50% of supernatant was removed and freshly prepared TEC media (500 ul) was added per well. On day 22, Experiment 29B was reseeded as single cells in suspension (3D) and on Geltrex coated plates (2D). Remaining cells were frozen. Frozen Experiment 29B were thawed in suspension and maintained in TEC media.
For this differentiation step, VPE cells were cultured in thymic cell media e.g. TEP media or TEC media. […]
In experiments 16 through 23, the expression of FOXN1 and other markers expression by Day5 of TEP differentiation. […] In Exp 29-TEPs, FOXN1 expression was detected at week 1 of TEP stage. When TEPs were reseeded into 2D culture, no FOXN1 expression was detected after 1 week but FOXN1 was detected by week 2 in culture. In Exp29B-TEP2-3D, where single cell TEP were resuspended into 3D-aggregate culture, FOXN1 expression was detected already by 1 week and became even higher by second week.

[1] = system: Spheroids induced to differentiate from iPSC state to TEP; test: Effect of timing of BMP addition on developmental gene expression in spheroids differentiating from iPSC to TEP; settings: with or without BMP at early and late TEP stages
Excerpt: Differentiation of DE cells to thymic cells can be promoted by adding factors known to be important for DE to thymic differentiation. An example is BMP which is known to be crucial for the development and maturation of thymic progenitor cells from the third pharyngeal pouch. The impact of the timing of addition of BMP was explored (FIG. 2). Spheroids were induced to differentiate from iPSC state to TEP and timing of addition of BMP was varied. At different stages (DE, AFE, VPE, early and late TEP) spheroids were collected and analyzed for biomarkers related to the different stages. We compared condition with or without BMP at early and late TEP stages.

Cc1c[nH]c(-c2cnc(NCCNc3ccc(C#N)cn3)nc2-c2ccc(Cl)cc2Cl)n1 [CHIRR99, CHIR99021]
differentiation (iPSCs; 2 μM added to Experiment 23 Medium B, day 3-4): enhance differentiation | differentiation efficiency to DE (iPSCs; Experiment 23 with Wnt activator versus Experiment 21 and 22 without): increased differentiation efficiency to DE

Oc1cccc(-c2nc(N3CCOCC3)c3oc4ncccc4c3n2)c1 [PI-103]
DE differentiation (iPSCs; PI-103 (25 nM) added to Experiment 21/22 Medium B, day 3-5, excluded in Experiment 22): enhanced DE differentiation

O=C(NNc1ccccc1)c1ccncc1 [PluriSIn-1]
Oct4 and Nanog expression (TEP populations; one 24-hour pulse before freezing and one 24-hr pulse after thawing, compared to one pulse): lower Oct4 and Nanog expression | Oct4 and Nanog expression (TEP populations; one dose alone, different iPSC cell line): sufficient to reduce Oct4 and Nanog expression

B1: RANKL: growth factor important for late maturation of TEPs to TECs (protein, UniProt O14788 140-317, looked up)
Tumor necrosis factor ligand …: IRAEKAMVDGSWLDLAKRSKLEAQPFAHLTINATDIPSGSHKVSLSSWYHDRGWAKISNMTFSNGKLIVNQDGFYYLYANICFRHHETSGDLATEYLQLMVYVTKTSIKIPSSHTLMKGGSTKYWSGNSEFHFYSINVGGFFKLRSGEEISIEVSNPSLLDPDQDATYFGAFKVRDID
duration of TEP culture while maintaining the expression of FOXN1 (TEPs): extended beyond 5 days and up to 2 weeks

B2: FGF10: growth factor important for late maturation of TEPs to TECs (protein, UniProt O15520 38-208, looked up)
Fibroblast growth factor 10: QALGQDMVSPEATNSSSSSFSSPSSAGRHVRSYNHLQGDVRWRKLFSFTKYFLKIEKNGKVSGTKKENCPYSILEITSVEIGVVAVKAINSNYYLAMNKKGKLYGSKEFNNDCKLKERIEENGYNTYASFNWQHNGRQMYVALNGKGAPRRGQKTRRKNTSAHFLPMVVHS
duration of TEP culture while maintaining the expression of FOXN1 (TEPs): extended beyond 5 days and up to 2 weeks

B3: FGF7: growth factor important for late maturation of TEPs to TECs (protein, UniProt P21781 32-194, looked up)
Fibroblast growth factor 7: CNDMTPEQMATNVNCSSPERHTRSYDYMEGGDIRVRRLFCRTQWYLRIDKRGKVKGTQEMKNNYNIMEIRTVAVGIVAIKGVESEFYLAMNKEGKLYAKKECNEDCNFKELILENHYNTYASAKWTHNGGEMFVALNQKGIPVRGKKTKKEQKTAHFLPMAIT
duration of TEP culture while maintaining the expression of FOXN1 (TEPs): extended beyond 5 days and up to 2 weeks

B4: BMP: growth factor BMP4, crucial for development and maturation of thymic progenitor cells (protein, UniProt P12644 293-408, looked up)
Bone morphogenetic protein 4: SPKHHSQRARKKNKNCRRHSLYVDFSDVGWNDWIVAPPGYQAFYCHGDCPFPLADHLNSTNHAIVQTLVNSVNSSIPKACCVPTELSAISMLYLDEYDKVVLKNYQEMVVEGCGCR
modifications: Bone morphogenetic protein 4
notes: growth factor BMP4, crucial for development and maturation of thymic progenitor cells
PAX1 and PAX9 expression [1]: suppressed | TBX1 and HOXA3 expression [1]: upregulated
